Laboratory results as given in US5064850A, “Dihydro-3,3-diphenyl-5-(1H-pyrazol-1-ylmethyl-2(3H)-furanone and dihydro-5-((substituted-1H-pyrazol-1-yl)methyl)-3,3-diphenyl-2(3H)-furan one derivatives” (Marion Merrell Dow Inc., priority 1991, dated 1991).
Structures can show the parent of a compound that is named as a salt.

Key:
[1] = tested on: isolated guinea pig ileum; settings: cited from earlier work
[2] = biological target: T1, postsynaptic muscarinic cholinergic receptors on intestinal (ileal-longitudinal) smooth muscle (Cavia porcellus, UniProt H0W1Z3); assay: Antimuscarinic Test Protocol: antagonism of carbachol-induced contraction of ileum strips (Table 1); format: cell-based, guinea pig; settings: carbachol as agonist, read-out: Anti-muscarinic Activity Kb
T1 construct: The longitudinal muscle, with the myenteric plexus attached, is separated from the underlying circular muscle; from tissue; host or cells: guinea pig ileum, longitudinal muscle strip with myenteric plexus attached
Description: Antimuscarinic Test Protocol.
Male albino guinea pigs are killed by decapitation or cervical dislocation. The cavity is opened and the small intestine is removed, with about 10 cm of the terminal ileum being discarded. The intestine is placed in a Petri dish that contains Tyrodes solution (137 mM NaCl, 2.78 mM KCl, 1.8 mM CaCl2.2H2 O, 1.1 mM MgCl2.6H2 O, 0.4 mM […], 11.8 mM NaHCO3, 5.6 mM dextrose) and cut into 3-4 cm segments. The segments are preferentially taken from the aboral end of the ileum. Each segment is carefully stretched onto a glass rod 6 mm in diameter and the remaining mesenteric tissue is cut away. The longitudinal muscle, with the myenteric plexus attached, is separated from the underlying circular muscle by gently stroking with a cotton-tipped applicator soaked in Tyrodes solution on a tangent away from the shallow longitudinal incisions made parallel to the mesenteric attachment. Using gentle traction, and taking care to keep the segment moist throughout the whole procedure, the tissue is stripped from the whole length of the segment (Paton and Zar, J. Physiol. 194:13, 1968).
Tissues are suspended with 5-0 silk suture in 10 mL water-jacketed glass tissue baths containing Tyrodes solution maintained at 37° C. and aerated with 95% O2 /5% CO2. The suture connects each tissue to an isometric force-displacement transducer (Grass or Gould) coupled to a physiograph. Each preparation is suspended under a resting tension of 0.3 g and allowed to equilibrate for 36 minutes. During this period, the baths are emptied and filled every 12 minutes with 10 mL of warm Tyrodes solution. At the end of this equilibration period, each muscle strip is conditioned by adding 10 mM carbachol to the baths. The drug remains in contact with each tissue for 1-2 minutes and then is removed from the bath with 4 rapid rinses of 10 mL of warm Tyrodes solution. The preparations are allowed to recover for an additional 12 minutes before being used in experiments.
Carbachol is dissolved in saline to produce 2×10^-2 M stock concentrations. Serial dilutions (1:10) in saline or water are made from the stock solution. Appropriate volumes of these solutions are added cumulatively to the 10 mL tissue baths in order to obtain the desired bath concentrations.
Compounds that are soluble in water or saline are dissolved in these solvents to produce 2×10^-2 or 2×10^-3 M stock concentrations. Small amounts of 1 N HCl, NaOH, or 95 ethanol may be added for those agents that are not soluble in water or saline alone. […] in dimethylsulfoxide (DMSO) to produce 4×10^-2 M stock solutions. Serial dilutions (1:10) in water are made from the stock solution. Other solvents may be used when appropriate and will be specifically described in the experimental procedure. Appropriate volumes are then added to the baths in order to obtain the desired bath concentrations.
Appropriate volumes of carbachol solutions are cumulatively added to the 10 mL tissue baths to increase the concentration of carbachol in the bath step-by-step without washing out after each single dose. With each concentration step, the tissue contracts isometrically. The next concentration is added only after the preceding contraction has reached a steady value. […] The tissue is then washed with 4 rapid rinses of 10 mL of warm Tyrodes solution and allowed to recover for 12 minutes [Van Rossum et al., Arch. Int. Pharmacodyn. 143:240, (1963) and 143:299, (1963)]. Antagonism of carbachol responses in the presence of antagonist is determined by repeating the cumulative addition procedure after the tissue has been exposed to the […] for 5 minutes.
Three or four different concentrations of antagonist are studied in the same preparations. Responses are expressed relative to the maximum contraction elicited by carbachol in the absence of antagonist.

T1 sequence (H0W1Z3 1-590): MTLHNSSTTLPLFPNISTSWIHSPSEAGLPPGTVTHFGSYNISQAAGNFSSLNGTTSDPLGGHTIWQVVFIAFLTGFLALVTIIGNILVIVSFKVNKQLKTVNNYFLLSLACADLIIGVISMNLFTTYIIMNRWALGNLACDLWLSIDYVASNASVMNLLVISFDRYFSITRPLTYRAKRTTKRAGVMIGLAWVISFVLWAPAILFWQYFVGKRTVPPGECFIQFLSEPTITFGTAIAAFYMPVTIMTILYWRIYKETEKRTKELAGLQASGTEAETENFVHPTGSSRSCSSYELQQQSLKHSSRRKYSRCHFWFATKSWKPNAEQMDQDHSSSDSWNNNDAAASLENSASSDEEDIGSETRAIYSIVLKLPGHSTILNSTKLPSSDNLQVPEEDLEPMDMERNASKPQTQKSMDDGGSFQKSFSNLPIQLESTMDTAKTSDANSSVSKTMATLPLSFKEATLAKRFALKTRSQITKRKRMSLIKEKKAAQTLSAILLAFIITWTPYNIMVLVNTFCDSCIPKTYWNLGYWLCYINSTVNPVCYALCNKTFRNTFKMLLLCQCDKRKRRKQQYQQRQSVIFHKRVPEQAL

Compound	prevention of contractions of isolated guinea pig ileum [1]	Kb [2] [nM]
CN(C)CC1CC(c2ccccc2)(c2ccccc2)OC1=O (centres unmarked) [3-[(dimethylamino)methyl]-4,5-dihydro-5,5-diphenyl-2(3H)furanone]	prevents contractions of isolated guinea pig ileum	
O=C1OC(Cn2cccn2)CC1(c1ccccc1)c1ccccc1 (centres unmarked) [Dihydro-3,3-diphenyl-5-(1H-pyrazol-1-ylmethyl)-2(3H)-furanone]		50
Cc1cc(C)n(CC2CC(c3ccccc3)(c3ccccc3)C(=O)O2)n1 (centres unmarked) [Dihydro-5-[(3,5-dimethyl-1H-pyrazol-1-yl)methyl]-3.3-diphenyl-2(3H)-furanone hydrochloride]		1000
Cc1ccn(CC2CC(c3ccccc3)(c3ccccc3)C(=O)O2)n1 (centres unmarked) [Dihydro-5-[(3-methyl-1H-pyrazol-1-yl)methyl]-3,3-diphenyl-2(3H)-furanone]		239
Cc1cnn(CC2CC(c3ccccc3)(c3ccccc3)C(=O)O2)c1 (centres unmarked) [Dihydro-5-[(4-methyl-1H-pyrazol-1-yl)methyl]-3,3-diphenyl-2(3H)-furanone]		251
CC[n+]1cccn1CC1CC(c2ccccc2)(c2ccccc2)C(=O)O1 (centres unmarked) [Ethyl dihydro-3,3-diphenyl-5-(1H-pyrazol-1-ylmethyl)-2(3H)-furanone chloride]		49
CC[n+]1c(C)ccn1CC1CC(c2ccccc2)(c2ccccc2)C(=O)O1 (centres unmarked) [Ethyl dihydro-5-[(3-methyl-1H-pyrazol-1-yl)methyl]-3,3-diphenyl-2(3H)-furanone chloride hydrate]		52
CC[n+]1cc(C)cn1CC1CC(c2ccccc2)(c2ccccc2)C(=O)O1 (centres unmarked) [Ethyl dihydro-5-[(4-methyl-1H-pyrazol-1-yl)methyl]-3,3-diphenyl-2(3H)-furanone chloride hydrate]		148
C[n+]1cccn1CC1CC(c2ccccc2)(c2ccccc2)C(=O)O1 (centres unmarked) [Methyl dihydro-3,3-diphenyl-5-(1H-pyrazol-1-ylmethyl)-2(3H)-furanone chloride hydrate]		100
Cc1ccn(CC2CC(c3ccccc3)(c3ccccc3)C(=O)O2)[n+]1C (centres unmarked) [Methyl dihydro-5-[(3-methyl-1H-pyrazol-1-yl)methyl]-3,3-diphenyl-2(3H)-furanone chloride hydrate]		142
Cc1cn(CC2CC(c3ccccc3)(c3ccccc3)C(=O)O2)[n+](C)c1 (centres unmarked) [Methyl dihydro-5-[(4-methyl-1H-pyrazol-1-yl)methyl]-3,3-diphenyl-2(3H)-furanone chloride hydrate]		117
